Values quoted from earlier work, collected in US7884090B2, “Compositions and methods for the treatment of arthritis” (priority 1999, dated 2011).

Assays:
[1] = tested on: Staph haemolyticus, Staph hominis, Acinetobacter Iwoffi and further listed species up to Yersinia enterocolitica; settings: in vitro
[2] = tested on: pseudomonas aeruginosa, methicillin-resistant strains of Staph. aureus and Proteus

O=C(O)c1cn(C2CC2)c2cc(N3CCNCC3)c(F)cc2c1=O [cipro, ciprofloxacin]
Strains against which effective [1]: 90%

CCN[C@@H]1C[C@H](N)[C@@H](O[C@H]2OC(CN)=CC[C@H]2N)[C@H](O)[C@H]1O[C@H]1OC[C@](C)(O)[C@H](NC)[C@H]1O [netilmicin]
Strains against which active [2]: 85%
